Assay results: patent EP4603105A1, “PHARMACEUTICAL COMPOSITION CONTAINING CYCLIC COMPOUND HAVING SELECTIVE KRAS INHIBITORY EFFECT AGAINST HRAS AND NRAS” (CHUGAI SEIYAKU KABUSHIKI KAISHA, priority 2022, dated 2024)
*1 amine or outer side, *2 acyl side, *3 side chain or, on linkers, in order; H or OH if unused. Where a SMILES comes first, the peptide text is derived from it. Bridges are numbered along the chain shown (N, C = ends). [ ]: non-standard residue; d: D form. The star is where a group is joined. hPhe(3-Cl-4-CF3) = N[C@@H](CCc1ccc(C(F)(F)F)c(Cl)c1)C(=O)O; NPrPhe(4-CF3) = CCCN[C@@H](Cc1ccc(C(F)(F)F)cc1)C(=O)O; NMeGly(cPent) = CN[C@H](C(=O)O)C1CCCC1; X9 = CC1(C)CN([*:1])[C@@H]1C(=O)[*:2]; NMeD = CN[C@@H](CC(=O)O)C(=O)O; NMeL = CN[C@@H](CC(C)C)C(=O)O; X10 = N#CCN(CC(=O)[*:2])[*:1]; Morpholide = C1CN(*)CCO1; Ac5c = NC1(C(=O)O)CCCC1; Aze = O=C(O)[C@@H]1CCN1; NcPrGly = O=C(O)CNC1CC1; NPrGly = CCCNCC(=O)O; NEtG = CCNCC(=O)O; Sar = CNCC(=O)O

Key:
HRAS wild-type protein = HRAS wild-type protein (Homo sapiens, UniProt P01112); experiment: Binding to HRAS by surface plasmon resonance (SPR), KD and KD ratio to KRAS; details: ratio of KD for HRAS wild-type protein to KD for KRAS
Outline: (§1)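 GDP-bound biotin-Avi RAS captured at ~100–300 RU, 30°C, pH 7.4 HBS containing 10 µM GDP, 10 mM MgCl2, 1 mM DTT, 0.01% Tween 20 and 4% DMSO. KD by 1:1 fitting.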

[1] = tested on: human lung cancer strain NCI-H441; format: cell-based
Outline: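 Readout: […] after the ATP-based reagent. Compound: serial dilutions in dimethyl sulfoxide.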

[2] = molecular target: GDP-bound NRAS wild-type protein (Homo sapiens, UniProt P01111); experiment: Binding to NRAS by surface plasmon resonance (SPR), KD and KD ratio to KRAS; details: ratio of KD for GDP-bound NRAS wild-type protein to KD for KRAS
Outline: as §1

Chain of HRAS wild-type protein (P01112 whole entry): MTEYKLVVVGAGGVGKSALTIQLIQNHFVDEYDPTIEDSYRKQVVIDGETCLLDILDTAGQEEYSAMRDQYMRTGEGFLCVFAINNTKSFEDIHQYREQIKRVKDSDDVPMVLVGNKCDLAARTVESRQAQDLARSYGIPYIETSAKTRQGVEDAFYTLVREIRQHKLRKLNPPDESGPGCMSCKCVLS
Chain of GDP-bound NRAS wild-type protein (P01111 whole entry): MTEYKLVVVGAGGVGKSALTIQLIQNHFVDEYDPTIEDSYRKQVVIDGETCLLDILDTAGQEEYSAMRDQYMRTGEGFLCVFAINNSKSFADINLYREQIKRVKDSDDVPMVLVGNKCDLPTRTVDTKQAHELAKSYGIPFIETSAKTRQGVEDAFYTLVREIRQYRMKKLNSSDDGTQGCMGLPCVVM

| SMILES | HRAS /KRAS (HRAS wild-type protein) | IC50 [1] [nM] | NRAS /KRAS [2] |
| --- | --- | --- | --- |
| CCCN1C(=O)CN(C)C(=O)CN(C2CC2)C(=O)[C@H]([C@@H](C)CC)NC(=O)[C@H](CC(C)C)N(C)C(=O)C[C@@H](C(=O)N2CCOCC2)N(C)C(=O)[C@H](C2CCCC2)N(C)C(=O)C2(CCCC2)NC(=O)[C@@H]2CCCN2C(=O)[C@H](CCc2ccc(C(F)(F)F)c(Cl)c2)NC(=O)CN(C)C(=O)[C@@H]1Cc1ccc(C(F)(F)F)cc1 [PP0252] ([NMeL]I[NcPrGly][Sar][NPrPhe(4-CF3)][Sar][hPhe(3-Cl-4-CF3)]P[Ac5c][NMeGly(cPent)][NMeD]-Morpholide; lactam N-11) | B (a compound having 3 or more and less than 10 is denoted as B) | 19.4 | B (a compound having 3 or more and less than 10 is denoted as B) |
| CCCN1CC(=O)N(C)CC(=O)N(CCC)[C@@H](Cc2ccc(C(F)(F)F)cc2)C(=O)N(C)CC(=O)N[C@@H](CCc2ccc(C(F)(F)F)c(Cl)c2)C(=O)N2CCC[C@H]2C(=O)NC2(CCCC2)C(=O)N(C)[C@@H](C2CCCC2)C(=O)N(C)[C@H](C(=O)N2CCOCC2)CC(=O)N(C)[C@@H](CC(C)C)C(=O)N[C@@H]([C@@H](C)CC)C1=O [PP0253] ([NMeL]I[NPrGly][Sar][NPrPhe(4-CF3)][Sar][hPhe(3-Cl-4-CF3)]P[Ac5c][NMeGly(cPent)][NMeD]-Morpholide; lactam N-11) | B (a compound having 3 or more and less than 10 is denoted as B) | 15.1 | B (a compound having 3 or more and less than 10 is denoted as B) |
| CCCN1C(=O)CN(C)C(=O)CN(CC#N)C(=O)[C@H]([C@@H](C)CC)NC(=O)[C@H](CC(C)C)N(C)C(=O)C[C@@H](C(=O)N2CCOCC2)N(C)C(=O)[C@H](C2CCCC2)N(C)C(=O)C2(CCCC2)NC(=O)[C@@H]2CCCN2C(=O)[C@H](CCc2ccc(C(F)(F)F)c(Cl)c2)NC(=O)CN(C)C(=O)[C@@H]1Cc1ccc(C(F)(F)F)cc1 [PP0254] ([NMeL]I[X10][Sar][NPrPhe(4-CF3)][Sar][hPhe(3-Cl-4-CF3)]P[Ac5c][NMeGly(cPent)][NMeD]-Morpholide; lactam N-11) | C (A compound having a KD ratio of 0.1 or more and less than 3 is denoted as C) | 5.6 | B (a compound having 3 or more and less than 10 is denoted as B) |
| CCCN1C(=O)CN(C)C(=O)[C@H]2N(CC2(C)C)C(=O)[C@H]([C@@H](C)CC)NC(=O)[C@H](CC(C)C)N(C)C(=O)C[C@@H](C(=O)N2CCOCC2)N(C)C(=O)[C@H](C2CCCC2)N(C)C(=O)C2(CCCC2)NC(=O)[C@@H]2CCCN2C(=O)[C@H](CCc2ccc(C(F)(F)F)c(Cl)c2)NC(=O)CN(C)C(=O)[C@@H]1Cc1ccc(C(F)(F)F)cc1 [PP0256] ([NMeL]I[X9][Sar][NPrPhe(4-CF3)][Sar][hPhe(3-Cl-4-CF3)]P[Ac5c][NMeGly(cPent)][NMeD]-Morpholide; lactam N-11) | C (A compound having a KD ratio of 0.1 or more and less than 3 is denoted as C) | 26.6 | B (a compound having 3 or more and less than 10 is denoted as B) |
| CCCN1C(=O)[C@@H]2CCN2C(=O)CN(CC)C(=O)[C@H]([C@@H](C)CC)NC(=O)[C@H](CC(C)C)N(C)C(=O)C[C@@H](C(=O)N2CCOCC2)N(C)C(=O)[C@H](C2CCCC2)N(C)C(=O)C2(CCCC2)NC(=O)[C@@H]2CCCN2C(=O)[C@H](CCc2ccc(C(F)(F)F)c(Cl)c2)NC(=O)CN(C)C(=O)[C@@H]1Cc1ccc(C(F)(F)F)cc1 [PP0259] ([NMeL]I[NEtG][Aze][NPrPhe(4-CF3)][Sar][hPhe(3-Cl-4-CF3)]P[Ac5c][NMeGly(cPent)][NMeD]-Morpholide; lactam N-11) | B (a compound having 3 or more and less than 10 is denoted as B) | 10.2 | C (A compound having a KD ratio of 0.1 or more and less than 3 is denoted as C) |
